Reference: patent publication US4325946A, “Anthracycline glycosides, their preparation, use and compositions thereof” (Farmitalia Carlo Erba S.p.A., priority 1979, dated 1982)
Structures can show the parent of a compound that is named as a salt.

Key:
P-388 ascitic leukemia = assay: Activity on ascitic P-388 leukemia in mice; type: in vivo; settings: for Toxic Deaths: macroscopic autoptic findings
Procedure: (§1) The new compounds according to the invention were tested in HeLa cells in vitro (time of exposure to the drugs: 24 hours) and on P-388 ascitic leukemia in mice in comparison with daunorubicin (daunomycin) and doxorubicin (adriamycin).
Activity on Ascitic P-388 Leukemia in Mice
^(a) Mice were treated i.p. on day 1 after tumor cell inoculation.
^(b) Median survival time of treated mice/median survival time of
^(c) Evaluated on the basis of macroscopic autoptic findings.
^(d) Longtime survival.

HeLa cells = assay: Effect on HeLa cells cloning efficiency in vitro; type: cell-based; settings: HeLa cells exposed 24 hours, then plated, colonies evaluated 5 days later; for IC50: Homo sapiens, read-out: ID50 (the source's name)
Procedure: as §1
Effect on HeLa Cells Cloning Efficiency In Vitro^(a)
^(a) HeLa cells were exposed to the test compounds for 24 hours, then
plated. The number of colonies was evaluated 5 days later.

With 4'-C-methyl-daunorubicin [I-A] as the compound, how does the “T/C (median survival time of treated mice/control mice × 100)” value (P-388 ascitic leukemia; 10 mg/Kg i.p. on day 1) read?
The value was 150%.

What about the “Toxic Deaths” value (P-388 ascitic leukemia; 10 mg/Kg i.p. on day 1) of the same compound?
The value was 0/10.

And the “T/C (median survival time of treated mice/control mice × 100)” value (P-388 ascitic leukemia; 20 mg/Kg i.p. on day 1)?
Its value is 155%.

What about the “Toxic Deaths” value (P-388 ascitic leukemia; 20 mg/Kg i.p. on day 1) of the same compound?
Its value is 0/10.

And the ID50 (HeLa cells)?
Its ID50 is 35 ng/mL.

4'-epi-4'-C-methyl-daunorubicin [I-C] was tested. Which “T/C (median survival time of treated mice/control mice × 100)” value (P-388 ascitic leukemia; 0.29 mg/Kg i.p. on day 1) did it give?
The value was 140%.

What about the “Toxic Deaths” value (P-388 ascitic leukemia; 0.29 mg/Kg i.p. on day 1) of the same compound?
The value was 0/10.

And the “T/C (median survival time of treated mice/control mice × 100)” value (P-388 ascitic leukemia; 0.44 mg/Kg i.p. on day 1)?
The value was 163%.

And the “Toxic Deaths” value (P-388 ascitic leukemia; 0.44 mg/Kg i.p. on day 1)?
Its value is 0/10.

And the “T/C (median survival time of treated mice/control mice × 100)” value (P-388 ascitic leukemia; 0.66 mg/Kg i.p. on day 1)?
Its value is 158%.

And the “Toxic Deaths” value (P-388 ascitic leukemia; 0.66 mg/Kg i.p. on day 1)?
The value was 1/20.

What about the ID50 (HeLa cells) of the same compound?
The ID50 was 2.8 ng/mL.

Which “T/C (median survival time of treated mice/control mice × 100)” value (P-388 ascitic leukemia; 1 mg/Kg i.p. on day 1) does the source give for 4'-epi-4'-C-methyl-doxorubicin [I-D] here?
The value was 150%.

And the “Toxic Deaths” value (P-388 ascitic leukemia; 1 mg/Kg i.p. on day 1)?
Its value is 0/10.

And the “T/C (median survival time of treated mice/control mice × 100)” value (P-388 ascitic leukemia; 2 mg/Kg i.p. on day 1)?
The value was 156%.

What about the “Toxic Deaths” value (P-388 ascitic leukemia; 2 mg/Kg i.p. on day 1) of the same compound?
The value was 0/10.

And the ID50 (HeLa cells)?
Its ID50 is 0.62 ng/mL.

For COc1cccc2c1C(=O)c1c(O)c3c(c(O)c1C2=O)C[C@@](O)(C(C)=O)C[C@@H]3O[C@H]1C[C@H](N)[C@H](O)[C@H](C)O1 [Daunorubicin . HCl, Daunorubicin, reference compound], which “T/C (median survival time of treated mice/control mice × 100)” value (P-388 ascitic leukemia; 2.9 mg/Kg i.p. on day 1) is on record?
The value was 175%.

What about the “Toxic Deaths” value (P-388 ascitic leukemia; 2.9 mg/Kg i.p. on day 1) of the same compound?
Its value is 0/40.

What about the “T/C (median survival time of treated mice/control mice × 100)” value (P-388 ascitic leukemia; 4.4 mg/Kg i.p. on day 1) of the same compound?
The value was 180%.

What about the “Toxic Deaths” value (P-388 ascitic leukemia; 4.4 mg/Kg i.p. on day 1) of the same compound?
The value was 3/39.

And the IC50 (HeLa cells)?
Its IC50 is 9 ng/mL.

For COc1cccc2c1C(=O)c1c(O)c3c(c(O)c1C2=O)C[C@@](O)(C(=O)CO)C[C@@H]3O[C@H]1C[C@H](N)[C@H](O)[C@H](C)O1 [Doxorubicin . HCl, Doxorubicin, reference compound], which “LTS (longtime survival)” value (P-388 ascitic leukemia; 6.6 mg/Kg i.p. on day 1) is on record?
Its value is 2/30.

What about the “T/C (median survival time of treated mice/control mice × 100)” value (P-388 ascitic leukemia; 6.6 mg/Kg i.p. on day 1) of the same compound?
Its value is 193%.

What about the “Toxic Deaths” value (P-388 ascitic leukemia; 6.6 mg/Kg i.p. on day 1) of the same compound?
Its value is 0/30.

What about the “LTS (longtime survival)” value (P-388 ascitic leukemia; 10 mg/Kg i.p. on day 1) of the same compound?
Its value is 5/28.

And the “T/C (median survival time of treated mice/control mice × 100)” value (P-388 ascitic leukemia; 10 mg/Kg i.p. on day 1)?
The value was 227%.

What about the “Toxic Deaths” value (P-388 ascitic leukemia; 10 mg/Kg i.p. on day 1) of the same compound?
The value was 1/28.

What about the IC50 (HeLa cells) of the same compound?
The IC50 was 8.4 ng/mL.

With COc1cccc2c1C(=O)c1c(O)c3c(c(O)c1C2=O)CC(O)(C(=O)CO)CC3OC1CC(N)C(C)(O)C(C)O1.Cl (stereo not shown) [I-B, 4'-C-methyl-doxorubicin] as the compound, how does the “T/C (median survival time of treated mice/control mice × 100)” value (P-388 ascitic leukemia; 6 mg/Kg i.p. on day 1) read?
Its value is 186%.

And the “Toxic Deaths” value (P-388 ascitic leukemia; 6 mg/Kg i.p. on day 1)?
The value was 0/10.

And the “T/C (median survival time of treated mice/control mice × 100)” value (P-388 ascitic leukemia; 7.7 mg/Kg i.p. on day 1)?
Its value is 172%.

What about the “Toxic Deaths” value (P-388 ascitic leukemia; 7.7 mg/Kg i.p. on day 1) of the same compound?
Its value is 0/10.

And the “LTS (longtime survival)” value (P-388 ascitic leukemia; 10 mg/Kg i.p. on day 1)?
Its value is 3/20.

And the “T/C (median survival time of treated mice/control mice × 100)” value (P-388 ascitic leukemia; 10 mg/Kg i.p. on day 1)?
Its value is 233%.

And the “Toxic Deaths” value (P-388 ascitic leukemia; 10 mg/Kg i.p. on day 1)?
The value was 2/20.

And the ID50 (HeLa cells)?
The ID50 was 18 ng/mL.
